This passage reports EC50 results from US11708348B2, “Protease inhibitors for treatment of coronavirus infections” (The Scripps Research Institute, priority 2021, dated 2023).

Usually EC50 stands for the concentration that produces a half-maximal response.

Bounds are passed on as bounds.

The first test concerns SARS-CoV-2 strain USA-WA1/2020. The test is described as follows: microbe, parasite or virus in culture. The format is cell-based. The settings on record: Severe acute respiratory syndrome coronavirus 2, HeLa-ACE2, 24 h, HeLa-ACE2 cells, SARS-CoV-2 infection, 24 h; given as bound; read-out: EC50, uM (Hela).
`CC1(C)C[C@@H](C(=O)N[C@@H](C[C@@H]2CCNC2=O)C(=O)COC(F)(F)F)N(C(=O)C(=O)NC2(C)CC2)C1` [Compound 540, (S)-4,4-dimethyl-1-(2-((1-methylcyclo-propyl)amino)-2-oxoacetyl)-N-((S)-3-oxo-1-((S)-2-oxopyrrolidin-3-yl)-4-(trifluoromethoxy)butan-2-yl)pyrrolidine-2-carboxamide]: the EC50 is > 1 µM.
For the compound `CC1(NC(=O)C(=O)N2[C@H](C(=O)N[C@@H](C[C@@H]3CCNC3=O)C(=O)COC(F)(F)F)CCC23CC3)CC1` [Compound 541, (S)-4-(2-((l-methyl-cyclopropyl)amino)-2-oxoacetyl)-N-((S)-3-oxo-1-((S)-2-oxopyrrolidin-3-yl)-4-(trifluoromethoxy)butan-2-yl)-4-azaspiro-[2.4]heptane-5-carboxamide], the EC50 was > 1 µM.
Still for that read-out and setting: the same measure for `C[C@@H]1C[C@H]2[C@H](C[C@H](C(=O)N[C@@H](C[C@@H]3CCNC3=O)C(=O)COC(F)(F)F)N2C(=O)C(=O)NC(C)(C)C)O1` [Compound 547, (2R,3aS,5R,6aS)-4-(2-(tert-butylamino)-2-oxoacetyl)-2-methyl-N-((S)-3-oxo-1-((S)-2-oxopyrrolidin-3-yl)-4-(trifluoromethoxy)butan-2-yl)hexahydro-2H-furo[3,2-b]pyrrole-5-carboxamide]: > 1 µM; for `Cc1cccnc1NC(=O)C(=O)N1C[C@@H]2CCC[C@@H]2[C@H]1C(=O)N[C@@H](C[C@@H]1CCNC1=O)C(=O)COC(F)(F)F` [Compound 550, (1S,3aR,6aS)-2-(2-((3-methylpyridin-2-yl)amino)-2-oxoacetyl)-N-((S)-3-oxo-1-((S)-2-oxopyrrolidin-3-yl)-4-(trifluoromethoxy)butan-2-yl)octahydrocyclo-penta[c]pyrrole-1-carboxamide]: > 1 µM; for `C[C@@H]1C[C@H]2[C@H](C[C@@H](C(=O)N[C@@H](C[C@@H]3CCNC3=O)C(=O)COC(F)(F)F)N2C(=O)C(=O)NC(C)(C)C)O1` [Compound 551, (2R,3aS,5S,6aS)-4-(2-(tert-butylamino)-2-oxoacetyl)-2-methyl-N-((S)-3-oxo-1-((S)-2-oxopyrrolidin-3-yl)-4-(trifluoromethoxy)butan-2-yl)hexahydro-2H-furo[3,2-b]pyrrole-5-carboxamide]: > 1 µM.
On the same count and under the same terms, the same measure for `O=C1NCC[C@H]1C[C@H](NC(=O)[C@@H]1[C@H]2CCC[C@H]2CN1C(=O)c1noc2c1CNCC2)C(=O)COC(F)(F)F` [Compound 556, (1S,3aR,6aS)-N-((S)-3-oxo-1-((S)-2-oxopyrrolidin-3-yl)-4-(trifluoromethoxy)butan-2-yl)-2-(4,5,6,7-tetrahydroisoxazolo[4,5-c]pyridine-3-carbonyl)octahydro-cyclopenta[c]pyrrole-1-carboxamide]: > 1 µM.
Same read-out and setting: next, `CC1(NC(=O)C(=O)N2CC3(CCC3)C[C@H]2C(=O)N[C@@H](C[C@@H]2CCNC2=O)C(=O)COC(F)(F)F)CC1` [Compound 558, (S)-6-(2-((l-methylcyclopropyl)-amino)-2-oxoacetyl)-N-((S)-3-oxo-1-((S)-2-oxopyrrolidin-3-yl)-4-(trifluoromethoxy)butan-2-yl)-6-azaspiro[3.4]octane-7-carboxamide]: > 1 µM.

Staying with this test, now noted: Severe acute respiratory syndrome coronavirus 2, HeLa-ACE2, 24 h, HeLa-ACE2 cells, SARS-CoV-2 infection, 24 h; read-out: EC50, uM (Hela).
Consider `O=C(Nc1ccccc1F)C(=O)N1[C@H](C(=O)N[C@@H](C[C@@H]2CCNC2=O)C(=O)COC(F)(F)F)C[C@@H]2C[C@@H]21` [Compound 539, (1S,3S,5S)-2-(2-((2-fluorophenyl)amino)-2-oxoacetyl)-N-((S)-3-oxo-1-((S)-2-oxopyrrolidin-3-yl)-4-(trifluoromethoxy)butan-2-yl)-2-azabicyclo-[3.1.0]hexane-3-carboxamide], for which the EC50 is 0.05 to 0.2 µM.
On the same count and under the same terms, next, `O=C(NCC(F)(F)F)C(=O)N1[C@@H]2CC[C@@H](C2)[C@H]1C(=O)N[C@@H](C[C@@H]1CCNC1=O)C(=O)COC(F)(F)F` [Compound 542, (1R,3S,4S)-N-((S)-3-oxo-1-((S)-2-oxopyrrolidin-3-yl)-4-(trifluoromethoxy)butan-2-yl)-2-(2-oxo-2-((2,2,2-trifluoroethyl)-amino)acetyl)-2-azabicyclo[2.2.1]-heptane-3-carboxamide]: 0.05 to 0.2 µM; `CC1(C)C[C@@H](C(=O)N[C@@H](C[C@@H]2CCNC2=O)C(=O)COC(F)(F)F)N(C(=O)C(=O)NC2CC(F)(F)C2)C1` [Compound 543, (S)-1-(2-((3,3-difluorocyclo-butyl)amino)-2-oxoacetyl)-4,4-dimethyl-N-((S)-3-oxo-1-((S)-2-oxopyrrolidin-3-yl)-4-(trifluoromethoxy)butan-2-yl)pyrrolidine-2-carboxamide]: 0.5 to 1 µM.
On the same count and under the same terms, the same measure for `O=C1NCC[C@H]1C[C@H](NC(=O)[C@@H]1[C@H]2CCC[C@H]2CN1C(=O)C(=O)N1CCOCC1)C(=O)COC(F)(F)F` [Compound 544, (1S,3aR,6aS)-2-(2-morpholino-2-oxoacetyl)-N-((S)-3-oxo-1-((S)-2-oxopyrrolidin-3-yl)-4-(trifluoromethoxy)butan-2-yl)octahydrocyclo-penta[c]pyrrole-1-carboxamide]: 0.5 to 1 µM; for `Cc1cc(C(=O)N2C[C@@H]3CCC[C@@H]3[C@H]2C(=O)N[C@@H](C[C@@H]2CCNC2=O)C(=O)COC(F)(F)F)no1` [Compound 545, (1S,3aR,6aS)-2-(5-methylisoxazole-3-carbonyl)-N-((S)-3-oxo-1-((S)-2-oxopyrrolidin-3-yl)-4-(trifluoromethoxy)butan-2-yl)octahydrocyclopenta[c]pyrrole-1-carboxamide]: 0.05 to 0.2 µM; for `CC1(NC(=O)C(=O)N2[C@H]3CC[C@H](C3)[C@H]2C(=O)N[C@@H](C[C@@H]2CCNC2=O)C(=O)COC(F)(F)F)CC1` [Compound 546, (1S,3S,4R)-2-(2-((l-methylcyclopropyl)-amino)-2-oxoacetyl)-N-((S)-3-oxo-1-((S)-2-oxopyrrolidin-3-yl)-4-(trifluoromethoxy)butan-2-yl)-2-azabicyclo-[2.2.1]heptane-3-carboxamide]: 0.2 to 0.5 µM.
On to `O=C(N[C@H]1[C@@H]2COC[C@@H]21)C(=O)N1C[C@@H]2CCC[C@@H]2[C@H]1C(=O)N[C@@H](C[C@@H]1CCNC1=O)C(=O)COC(F)(F)F` [Compound 548, (1S,3aR,6aS)-2-(2-(((1R,5S,6r)-3-oxabicyclo[3.1.0]-hexan-6-yl)amino)-2-oxoacetyl)-N-((S)-3-oxo-1-((S)-2-oxopyrrolidin-3-yl)-4-(trifluoromethoxy)butan-2-yl)octahydrocyclo-penta[c]pyrrole-1-carboxamide], for which the EC50 lay within 0.2 to 0.5 µM.
For the compound `O=C1NCC[C@H]1C[C@H](NC(=O)[C@@H]1[C@H]2CCC[C@H]2CN1C(=O)c1noc2c1COCC2)C(=O)COC(F)(F)F` [Compound 549, (1S,3aR,6aS)-2-(6,7-dihydro-4H-pyrano[3,4-d]isoxazole-3-carbonyl)-N-((S)-3-oxo-1-((S)-2-oxopyrrolidin-3-yl)-4-(trifluoromethoxy)butan-2-yl)octahydrocyclo-penta[c]pyrrole-1-carboxamide], the EC50 lay within 0.05 to 0.2 µM.
On to `Cc1ccccc1NC(=O)c1cn([C@@H](CC(C)C)C(=O)N[C@@H](C[C@@H]2CCNC2=O)C(=O)COC(F)(F)F)nn1` [Compound 552, 1-((S)-4-methyl-1-oxo-1-(((S)-3-oxo-1-((S)-2-oxopyrrolidin-3-yl)-4-(trifluoromethoxy)butan-2-yl)amino)pentan-2-yl)-N-(o-tolyl)-1H-l,2,3-triazole-4-carboxamide], for which the 50% effective concentration (EC50) is < 0.05 µM.
Same read-out and setting: next, `CC(C)(C)NC(=O)C(=O)N1C[C@H]2[C@@H]([C@H]1C(=O)N[C@@H](C[C@@H]1CCNC1=O)C(=O)COC(F)(F)F)C21CC1` [Compound 553, (1R,2S,5S)-3-(2-(tert-butylamino)-2-oxoacetyl)-N-((S)-3-oxo-1-((S)-2-oxopyrrolidin-3-yl)-4-(trifluoromethoxy)butan-2-yl)-3-azaspiro-[bicyclo[3.1.0]hexane-6,1'-cyclopropane]-2-carboxamide]: 0.05 to 0.2 µM; `CC(C)(NC(=O)C(=O)N1C[C@@H]2CCC[C@@H]2[C@H]1C(=O)N[C@@H](C[C@@H]1CCNC1=O)C(=O)COC(F)(F)F)C(F)F` [Compound 554, (1S,3aR,6aS)-2-(2-((1,1-difluoro-2-methylpropan-2-yl)amino)-2-oxoacetyl)-N-((S)-3-oxo-1-((S)-2-oxopyrrolidin-3-yl)-4-(trifluoromethoxy)butan-2-yl)octahydro-cyclopenta[c]pyrrole-1-carboxamide]: 0.05 to 0.2 µM.
On to `CC(C)(NC(=O)C(=O)N1C[C@H]2[C@@H]([C@H]1C(=O)N[C@@H](C[C@@H]1CCNC1=O)C(=O)COC(F)(F)F)C2(C)C)C(F)F` [Compound 555, (1R,2S,5S)-3-(2-((l,l-difluoro-2-methylpropan-2-yl)amino)-2-oxoacetyl)-6,6-dimethyl-N-((S)-3-oxo-1-((S)-2-oxopyrrolidin-3-yl)-4-(trifluoromethoxy)butan-2-yl)-3-azabicyclo-[3.1.0]hexane-2-carboxamide], for which the EC50 was < 0.05 µM.
Same read-out and setting: the same measure for `O=C1NCC[C@H]1C[C@H](NC(=O)[C@@H]1[C@H]2CCC[C@H]2CN1C(=O)c1noc2ccccc12)C(=O)COC(F)(F)F` [Compound 557, (1S,3aR,6aS)-2-(benzo[d]isoxazole-3-carbonyl)-N-((S)-3-oxo-1-((S)-2-oxopyrrolidin-3-yl)-4-(trifluoromethoxy)butan-2-yl)octahydro-cyclopenta[c]pyrrole-1-carboxamide]: < 0.05 µM; for `O=C1NCC[C@H]1C[C@H](NC(=O)[C@@H]1[C@H]2CCC[C@H]2CN1C(=O)OC1CCOC1)C(=O)COC(F)(F)F` (stereo partly drawn) [Compound 559, tetrahydrofuran-3-yl (1S,3aR,6aS)-1-(((S)-3-oxo-1-((S)-2-oxopyrrolidin-3-yl)-4-(trifluoromethoxy)butan-2-yl)carbamoyl)-hexahydrocyclo-penta[c]-pyrrole-2(1H)-carboxylate]: 0.05 to 0.2 µM.
